Values joined by “and” are separate entries in the source; they are usually repeats but may differ in a detail not shown here. Equal entries are not always repeated.
Columns and labels:
Format in all cases: cell-based
[1] = tested on: PRV-GFP (porcine pseudorabies virus)
IAV (influenza virus) = tested on: IAV (influenza virus)
[2] = tested on: VSV-GFP (vesicular stomatitis virus)
[3] = tested on: STING pathway (IFNb gene expression) in L929 mouse epithelial-like fibroblasts

Row | Structure (SMILES) | Infection Rate, PRV-GFP [1] | proportion of PRV-GFP infected cells (in words) [1] | M1 (M gene of influenza virus) Ct value (IAV (influenza virus)) | Infection Rate, VSV-GFP [2] | proportion of VSV-GF infected cells (in words) [2] | IFNb mRNA expression 2-^ΔΔCt value [3]
1 | COc1ccc2c(c1)CC(=O)c1ccc(C)c(C)c1N2 [Compound 19, 2-methoxy-6,7-dimethyl-5,11-dihydro-10H-dibenzo[b,f]aza-10-one] | 51% and 55.7% and 50.2% | significantly reduced | 21.37 and 21.39 and 21.49 | 99% and 91.1% and 90.5% | significantly reduced | –
2 | COc1ccc2c(c1)C(=O)Cc1ccccc1N2 [Compound 17, 8-methoxy-5,11-dihydro-10H-dibenzo[b,f]aza-10-one] | – | – | – | – | – | 1.54
3 | Cc1ccc2c(c1C)Nc1cc(F)ccc1CC2=O [Compound 13, 3-fluoro-6,7-dimethyl-5,11-dihydro-10H-dibenzo[b,f]aza-10-one] | 7.06% and 8.55% and 7.42% | significantly reduced | 19.45 and 20.25 and 19.66 | 94.3% and 92.7% and 92.1% | significantly reduced | 2.97 and 2.37 and 2.48 and 3.34
4 | O=C1Cc2ccccc2Nc2c(Cl)cccc21 [Compound 15, 6-chloro-5,11-dihydro-10H-dibenzo[b,f]aza-10-one] | – | – | – | – | – | 1.61
5 | O=C1Cc2ccccc2Nc2ccccc21 [Compound 14, 5,11-dihydro-10H-dibenzo[b,f]aza-10-one] | 17.1% and 19.5% and 19.8% | significantly reduced | 18.99 and 19.52 and 19.69 | 76.1% and 66.5% and 65.8% | significantly reduced | –
6 | COc1ccc2c(c1)Nc1c(ccc(C)c1C)C(=O)C2 [Compound 18, 3-methoxy-6,7-dimethyl-5,11-dihydro-10H-dibenzo[b,f]aza-10-one] | 18.3% and 18.1% | significantly reduced | 19.52 and 19.47 and 19.51 | 13.9% and 12.5% and 12.9% | significantly reduced | 8.76 and 6.92 and 6.07 and 5.62
7 | Cc1ccc2c(c1C)Nc1ccccc1CC2=O [Compound 11, 6,7-dimethyl-5,11-dihydro-10H-dibenzo[b,f]aza-10-one] | 13.1% and 14.2% and 13.5% | significantly reduced | 18.71 and 18.62 and 18.68 | 40% and 31.1% and 33.7% | significantly reduced | –
